Laboratory results published in ChEMBL document CHEMBL1201862, “PubChem BioAssay data set” (2004).
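Results reflect a 48-hour exposure of cells in 96-well plates to compound at five concentrations. Here, GI50 denotes the concentration required for 50% inhibition of growth.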 Active and inactive are the calls of the source. Rule as the data show it: active = GI50 up to about 1.1 µM and inactive = higher.

Tests used:
Experiment in all cases: DTP human tumour cell line panel, 48 h
UACC-257 = system: UACC-257
CAKI-1 = system: CAKI-1
SNB-75 = system: SNB-75
DU-145 = system: DU-145
SK-MEL-28 = system: SK-MEL-28
UACC-62 = system: UACC-62
COLO 205 = system: COLO 205
SF-539 = system: SF-539
IGROV-1 = system: IGROV-1
SK-MEL-5 = system: SK-MEL-5
OVCAR-3 = system: OVCAR-3
HCC 2998 = system: HCC 2998
SR = system: SR
ACHN = system: ACHN
CCRF-CEM = system: CCRF-CEM
HOP-62 = system: HOP-62
SF-295 = system: SF-295
SK-MEL-2 = system: SK-MEL-2
HL-60 = system: HL-60
RXF 393 = system: RXF 393

SMILES | GI50 (UACC-257) | GI50 (CAKI-1) | GI50 (SNB-75) | GI50 (DU-145) | GI50 (SK-MEL-28) | GI50 (UACC-62) | GI50 (COLO 205) | GI50 (SF-539) | GI50 (IGROV-1) | GI50 (SK-MEL-5) | GI50 (OVCAR-3) | GI50 (HCC 2998) | GI50 (SR) | GI50 (ACHN) | GI50 (CCRF-CEM) | GI50 (HOP-62) | GI50 (SF-295) | GI50 (SK-MEL-2) | GI50 (HL-60) | GI50 (RXF 393)
C[C@@H]1CC[C@@]2(OC1)O[C@H]1[C@@H](O)[C@H]3[C@@H]4CC[C@H]5C[C@@H](O[C@@H]6O[C@H](CO)[C@H](O[C@@H]7O[C@H](CO)C(O)[C@H](O[C@@H]8OC[C@@H](O)[C@H](O)[C@H]8O)[C@H]7O[C@@H]7O[C@H](CO)[C@H](O)[C@H](O[C@@H]8O[C@H](CO)[C@@H](O)[C@H](O)[C@H]8O)[C@H]7O)[C@H](O)[C@H]6O)[C@H](O)C[C@]5(C)[C@H]4CC[C@]3(C)[C@H]1[C@@H]2C (some centres undefined) [DIGITONIN] | 8.38 µM (inactive) | 1.39 µM (inactive) | 2.83 µM (inactive) | 2.05 µM (inactive) | 2.61 µM (inactive) | 4 µM (inactive) | 1.68 µM (inactive) | 2.98 µM (inactive) | 2.83 µM (inactive) | 4.5 µM (inactive) | 1.55 µM (inactive) | 1.66 µM (inactive) | 2.37 µM (inactive) | 1.52 µM (inactive) | 2.86 µM (inactive) | 2.37 µM (inactive) | 1.82 µM (inactive) | 3.37 µM (inactive) | 2.9 µM (inactive) | –
CCC(=O)c1ccc2[nH]c3c(C)c4c(O)cc(C)nc4c(C)c3c2c1 | > 100 µM (inactive) | > 100 µM (inactive) | > 100 µM (inactive) | > 100 µM (inactive) | > 100 µM (inactive) | – | > 100 µM (inactive) | > 100 µM (inactive) | > 100 µM (inactive) | > 100 µM (inactive) | – | > 100 µM (inactive) | 40.6 µM (inactive) | > 100 µM (inactive) | > 100 µM (inactive) | 92 µM (inactive) | > 100 µM (inactive) | > 100 µM (inactive) | > 100 µM (inactive) | > 100 µM (inactive)
[N-]=[N+]=CC(=O)OC(CCl)CCl | > 100 µM (inactive) | – | – | > 100 µM (inactive) | > 100 µM (inactive) | > 100 µM (inactive) | > 100 µM (inactive) | – | > 100 µM (inactive) | 46.3 µM (inactive) | > 100 µM (inactive) | > 100 µM (inactive) | 37.5 µM (inactive) | > 100 µM (inactive) | > 10 µM (inactive) | > 100 µM (inactive) | > 100 µM (inactive) | > 100 µM (inactive) | > 100 µM (inactive) | > 100 µM (inactive)
Clc1ccc(-c2nn3c(COc4ccc(OCc5nnc6sc(-c7ccc(Cl)cc7)nn56)c(Cl)c4)nnc3s2)cc1 | 44.7 µM (inactive) | 21.6 µM (inactive) | 12.7 µM (inactive) | 37.5 µM (inactive) | 31.3 µM (inactive) | > 100 µM (inactive) | 57.8 µM (inactive) | 24 µM (inactive) | 18.9 µM (inactive) | 20.9 µM (inactive) | 45.4 µM (inactive) | 20.2 µM (inactive) | 19.1 µM (inactive) | 44.2 µM (inactive) | – | 23.2 µM (inactive) | 26.5 µM (inactive) | 53.3 µM (inactive) | 17.7 µM (inactive) | 15.8 µM (inactive)
CC1=NN(c2cccc(Cl)c2)C(=N/c2nc3ccccc3s2)/C1=C\c1ccc(Cl)cc1 | 20.7 µM (inactive) | – | 26.4 µM (inactive) | 34.2 µM (inactive) | 20.8 µM (inactive) | – | – | 18.4 µM (inactive) | 13.5 µM (inactive) | 15.8 µM (inactive) | 21.7 µM (inactive) | 16.4 µM (inactive) | 24.7 µM (inactive) | 24.3 µM (inactive) | 26.1 µM (inactive) | 21.5 µM (inactive) | 23.4 µM (inactive) | 17.9 µM (inactive) | 22.4 µM (inactive) | 20.3 µM (inactive)
CCOC(=O)CCc1cn2cc(Br)nc(OC)c2n1 | > 100 µM (inactive) | > 100 µM (inactive) | 26.1 µM (inactive) | 51.6 µM (inactive) | > 100 µM (inactive) | 36 µM (inactive) | 9.12 µM (inactive) | 50.5 µM (inactive) | 65.6 µM (inactive) | 7.85 µM (inactive) | 57.7 µM (inactive) | > 100 µM (inactive) | 72.6 µM (inactive) | – | 10.1 µM (inactive) | 53.2 µM (inactive) | 57.7 µM (inactive) | > 100 µM (inactive) | > 100 µM (inactive) | 40.2 µM (inactive)
COc1ncc(C#CC(=O)c2ccccc2OC)c(OC)n1 | 3.52 µM (inactive) | 1.77 µM (inactive) | 4.03 µM (inactive) | 5.87 µM (inactive) | 2.86 µM (inactive) | 2.6 µM (inactive) | 2 µM (inactive) | – | 1.82 µM (inactive) | 2.06 µM (inactive) | 3.15 µM (inactive) | 6.35 µM (inactive) | 0.202 µM (active) | 1.69 µM (inactive) | 0.0995 µM (active) | 17.7 µM (inactive) | 16.9 µM (inactive) | 2.3 µM (inactive) | 0.432 µM (active) | 1.71 µM (inactive)
Cc1cccc(-c2nc(-c3cnccn3)n(Cc3ccccc3)n2)c1 | > 100 µM (inactive) | – | < 0.01 µM (active) | > 100 µM (inactive) | 68.5 µM (inactive) | 70.8 µM (inactive) | > 100 µM (inactive) | > 100 µM (inactive) | > 100 µM (inactive) | > 100 µM (inactive) | > 100 µM (inactive) | > 100 µM (inactive) | > 100 µM (inactive) | – | > 100 µM (inactive) | 35.1 µM (inactive) | 50.8 µM (inactive) | – | > 100 µM (inactive) | 29.6 µM (inactive)
CN(C)/C=C(\C(=O)c1ccccc1)n1nc(-c2ccccc2)cc1-c1ccccc1 | > 10 µM (inactive) | > 10 µM (inactive) | – | > 10 µM (inactive) | > 10 µM (inactive) | > 10 µM (inactive) | > 10 µM (inactive) | > 10 µM (inactive) | > 10 µM (inactive) | > 10 µM (inactive) | > 10 µM (inactive) | > 10 µM (inactive) | > 10 µM (inactive) | > 10 µM (inactive) | > 10 µM (inactive) | > 10 µM (inactive) | > 10 µM (inactive) | > 10 µM (inactive) | > 10 µM (inactive) | > 10 µM (inactive)
O=C1Nc2ccccc2/C1=N/NC(=O)C(O)(c1ccccc1)c1ccccc1 | 22 µM (inactive) | 31.7 µM (inactive) | 21.1 µM (inactive) | 25.1 µM (inactive) | 17.7 µM (inactive) | 15.8 µM (inactive) | 18 µM (inactive) | 15.8 µM (inactive) | 19.6 µM (inactive) | 16.2 µM (inactive) | 20 µM (inactive) | 14.6 µM (inactive) | 21.2 µM (inactive) | 29.4 µM (inactive) | 26.1 µM (inactive) | – | 18.8 µM (inactive) | 17 µM (inactive) | 17.4 µM (inactive) | 14.6 µM (inactive)
Cc1c2ccccc2c(C)n2c1nc1cc3ccccc3cc12 | 3.3 µM (inactive) | 1.24 µM (inactive) | 1.57 µM (inactive) | 1.3 µM (inactive) | 1.46 µM (inactive) | 1.49 µM (inactive) | 1.34 µM (inactive) | 1.34 µM (inactive) | 1.04 µM (active) | 1.94 µM (inactive) | 0.968 µM (active) | 1.78 µM (inactive) | 0.721 µM (active) | 0.783 µM (active) | 1.57 µM (inactive) | 1.34 µM (inactive) | 1.06 µM (active) | 1.61 µM (inactive) | 2.5 µM (inactive) | –
CCCC(=O)n1[nH]c(=O)n(-c2ccc(Cl)cc2)c1=O | > 100 µM (inactive) | > 100 µM (inactive) | > 100 µM (inactive) | > 100 µM (inactive) | > 100 µM (inactive) | > 100 µM (inactive) | > 100 µM (inactive) | – | > 100 µM (inactive) | > 100 µM (inactive) | > 100 µM (inactive) | > 100 µM (inactive) | > 100 µM (inactive) | > 100 µM (inactive) | > 100 µM (inactive) | > 100 µM (inactive) | > 100 µM (inactive) | > 100 µM (inactive) | > 100 µM (inactive) | > 100 µM (inactive)
O=C(Nc1noc(-c2ccccc2)n1)c1ccccc1CNc1noc(-c2ccccc2)n1 | > 100 µM (inactive) | > 100 µM (inactive) | > 100 µM (inactive) | > 100 µM (inactive) | > 100 µM (inactive) | > 100 µM (inactive) | > 100 µM (inactive) | > 100 µM (inactive) | > 100 µM (inactive) | > 100 µM (inactive) | > 100 µM (inactive) | > 100 µM (inactive) | > 100 µM (inactive) | > 100 µM (inactive) | > 100 µM (inactive) | > 100 µM (inactive) | > 100 µM (inactive) | – | > 100 µM (inactive) | > 100 µM (inactive)
COC(=O)C1=C(OC(=O)c2ccccc2)C(C(=O)OC)[C@]2(O)[C@@H](C(=O)OC)[C@H]1C[C@@H](c1ccccc1)[C@@H]2C(=O)OC (some centres undefined) | 5.62 µM (inactive) | 14.2 µM (inactive) | – | 9.4 µM (inactive) | 12.2 µM (inactive) | 11.6 µM (inactive) | 10.2 µM (inactive) | 2.2 µM (inactive) | 4.69 µM (inactive) | 4.85 µM (inactive) | 10.8 µM (inactive) | 7.21 µM (inactive) | 8.87 µM (inactive) | 10.9 µM (inactive) | 0.716 µM (active) | 13.2 µM (inactive) | 5.82 µM (inactive) | 2.81 µM (inactive) | 2.02 µM (inactive) | 3.14 µM (inactive)
